Measurements reported in paper PMC6707612, “Cyclic-di-GMP binds to histidine kinase RavS to control RavS-RavR phosphotransfer and regulates the bacterial lifestyle transition between virulence and swimming” (PLoS Pathogens, 2019).
pKd: −log10 of the molar value.

Tests used:
DHp domain of RavS = experiment: microscale thermophoresis (MST) binding; set-up: species or system Xanthomonas campestris pv. campestris; conditions: DHp region
Protocol: (§1) Fig 6 Arg^656 in the CA domain of RavS is a key residue for c-di-GMP binding. (a, b) c-di-GMP binds to the DHp-CA domain of RavS. PAS-A, PAS-B and DHp-CA in (a), and DHp and CA domains of RavS in (b), were purified and the interaction with c-di-GMP was measured by MST. Each assay was repeated three times. Standard deviations are shown. (c) Molecular docking model of the interaction between c-di-GMP and DHp-CA of RavS. c-di-GMP is shown as a ball-and-stick model and DHp-CA is shown in ribbon representation. (d) Schematic view of the predicted docking site between c-di-GMP and DHp-CA. Potential hydrogen bonds are indicated as blue dashed lines. Autodock software was used to predict the interaction. (e) Effect of amino acid substitutions on RavS–c-di-GMP binding. Ten recombinant proteins of the DHp-CA region, each containing a substitution of a putative essential residue involved in c-di-GMP binding, were used in the MST assay to quantify the Kd value of RavS–c-di-GMP binding. fl-c-di-GMP was used in the MST assay. Each experiment was repeated three times. […] The reactions were terminated with 5× SDS loading buffer and the products were separated by 12% SDS-PAGE, exposed to a phosphor screen and analysed by Typhoon FLA7000. […]
(§2) The interaction between c-di-GMP nucleotides and various proteins was measured by using MST with a fluorescein-labelled c-di-GMP (2′-Fluo-AHC-c-di-GMP, abbreviated as fl-c-di-GMP; 2′-Fluo-AHC-c-di-AMP, fl-c-di-AMP; 2′-Fluo-AHC-cGMP, fl-cGMP; Biolog, Germany). These chemicals contain carboxyfluorescein that has excitation and emission wavelengths of 497 nm and 520 nm, respectively, which can be detected directly by a MST instrument. […] Fluorescence intensity due to thermophoresis was recorded using the blue channel optics of the instrument (λex = 470 ± 15 nm, λem = 520 ± 10 nm) during a 30 s period of infrared laser heating at 80% of the maximum laser power, followed by a 5 s cooling period. […]

PAS-A of RavS = experiment: microscale thermophoresis (MST) binding; set-up: species or system Xanthomonas campestris pv. campestris; conditions: PAS-A region
Protocol: as §1, §2

PAS-B of RavS = experiment: microscale thermophoresis (MST) binding; set-up: species or system Xanthomonas campestris pv. campestris; conditions: PAS-B region
Protocol: as §1, §2

RavS^ΔN(R656A) = experiment: in vitro phosphotransfer assay with Arg656-substituted RavS; assay type: biochemical, Xanthomonas campestris pv. campestris; conditions: 15 or 100 μM c-di-GMP
Protocol: as §1, with “(e) Effect of amino acid substitutions on RavS–c-di-GMP binding.” left out, “assay.” for “assay. Each experiment was repeated three times.”
An in vitro autophosphorylation assay was conducted as described in our previous study. […] After electrophoresis, gels were exposed to a phosphor screen (GE Healthcare) and the autoradiographic signals were detected by a Typhoon FLA7000 (GE Healthcare).

DHp-CA^R656A = molecular target: T1, DHp-CA^R656A (Xanthomonas campestris pv. campestris, UniProt Q8P9A6, R656A); experiment: microscale thermophoresis (MST) binding; conditions: compared with DHp-CA protein
T1 sequence (Q8P9A6 464-697 R656A): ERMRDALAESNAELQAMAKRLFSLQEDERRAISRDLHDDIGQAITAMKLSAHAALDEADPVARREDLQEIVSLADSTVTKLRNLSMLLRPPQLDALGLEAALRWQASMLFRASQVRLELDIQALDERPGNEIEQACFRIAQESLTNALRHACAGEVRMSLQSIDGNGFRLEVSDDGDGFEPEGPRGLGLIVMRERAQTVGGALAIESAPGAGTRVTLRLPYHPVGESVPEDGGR
Protocol: as §1, §2

[1] = test system: DHp-CA^S636A, DHp-CA^D638A and DHp-CA^L652A; experiment: microscale thermophoresis (MST) binding, Ala-substituted DHp-CA proteins; set-up: species or system Xanthomonas campestris pv. campestris; conditions: compared with positive control DHp-CA protein; fl-c-di-GMP used in the MST assay
Protocol: as §1, with “(e) Effect of amino acid substitutions on RavS–c-di-GMP binding.” left out, “assay.” for “assay. Each experiment was repeated three times.”
(§3) The interaction between c-di-GMP nucleotides and various proteins was measured by using MST with a fluorescein-labelled c-di-GMP (2′-Fluo-AHC-c-di-GMP, abbreviated as fl-c-di-GMP; 2′-Fluo-AHC-c-di-AMP, fl-c-di-AMP; 2′-Fluo-AHC-cGMP, fl-cGMP; Biolog, Germany). […]

[2] = test system: DHpCA^D637A, DHp-CA^G639A, DHp-CA^D640A, DHp-CA^I653A, DHp-CA^E657A and DHp-CA^L666A; experiment: as above; set-up: species or system Xanthomonas campestris pv. campestris; conditions: compared with DHp-CA protein; fl-c-di-GMP used in the MST assay
Protocol: as §1, with “(e) Effect of amino acid substitutions on RavS–c-di-GMP binding.” left out, “assay.” for “assay. Each experiment was repeated three times.”
as §3

PizD = molecular target: PizD; set-up: method as in PMID 26055114; conditions: lower end of reported range; cited from earlier work

Row | Structure (SMILES) | binding (MST) (DHp domain of RavS) | binding (MST) (PAS-A of RavS) | binding (MST) (PAS-B of RavS) | stimulation of phosphotransferase activity of RavS^ΔN(R656A)~P towards RavR^ΔEAL (RavS^ΔN(R656A)) | fold decrease in binding affinity (DHp-CA^R656A) [fold] | fold increases in Kd values [1] | change in c-di-GMP binding affinity [2] | pKd (PizD)
1 | Nc1nc2c(ncn2[C@@H]2O[C@@H]3COP(=O)(O)O[C@H]4[C@@H](OC(=O)NCCCCCCNC(=O)c5ccc6c(c5)C(=O)OC65c6ccc(O)cc6Oc6cc(O)ccc65)[C@H](n5cnc6c(=O)[nH]c(N)nc65)O[C@@H]4COP(=O)(O)O[C@H]3[C@H]2O)c(=O)[nH]1 [fl-c-di-GMP, 2′-Fluo-AHC-c-di-GMP] | no binding | no binding | no binding |  |  |  |  | 
2 | Nc1nc2c(ncn2[C@@H]2O[C@@H]3COP(=O)(O)O[C@H]4[C@@H](O)[C@H](n5cnc6c(=O)[nH]c(N)nc65)O[C@@H]4COP(=O)(O)O[C@H]3[C@H]2O)c(=O)[nH]1 [c-di-GMP, Cyclic di-GMP] |  |  |  | failed to stimulate | 10 | 1–2 fold | no significant change | 7.00
